Experimental findings from publication PMC11208149, “Structure of plant photosystem I in a native assembly state defines PsaF as a regulatory checkpoint” (Nature Plants, 2024) are described below.

One assay addresses T1, mature PSI (Avena sativa, UniProt A0A3G1AUL2+A0A3G1AZK6).
T1 construct: gene psaA; native PSI-LHCI complex purified from mature green leaves, detergent-solubilised; with Photosystem I iron-sulfur center; Photosystem I reaction center subunit II, chloroplastic; Photosystem I reaction center subunit IV, chloroplastic; Photosystem I reaction center subunit III, chloroplastic; Photosystem I reaction center subunit V, chloroplastic; Photosystem I reaction center subunit VI, chloroplastic; Photosystem I reaction center subunit VIII; Photosystem I reaction center subunit IX; Photosystem I reaction center subunit psaK, chloroplastic; Photosystem I reaction center subunit XI, chloroplastic; Photosystem I reaction center subunit N, chloroplastic
Kind of assay: cryo-EM structure ([…] Å). The assay is classed as binding.

Assay [1] concerns the target T2, pre-PSI-1 (PSI assembly intermediate) (Avena sativa, UniProt A0A3G1AUL2+A0A3G1AZK6).
T2 construct: gene psaA; native eight-subunit complex from thylakoids of greening seedlings (10 h light), DDM-solubilised; lacks PsaF, PsaG, PsaJ, PsaK, PsaN and LHCI; with Photosystem I iron-sulfur center; Photosystem I reaction center subunit II, chloroplastic; Photosystem I reaction center subunit IV, chloroplastic; Photosystem I reaction center subunit VI, chloroplastic; Photosystem I reaction center subunit VIII; Photosystem I reaction center subunit XI, chloroplastic
Kind of assay: cryo-EM structure ([…] Å). The class given is binding. To be noted: native cofactor; site PQN844 of PsaA.

T1 sequence (A0A3G1AUL2 1-750): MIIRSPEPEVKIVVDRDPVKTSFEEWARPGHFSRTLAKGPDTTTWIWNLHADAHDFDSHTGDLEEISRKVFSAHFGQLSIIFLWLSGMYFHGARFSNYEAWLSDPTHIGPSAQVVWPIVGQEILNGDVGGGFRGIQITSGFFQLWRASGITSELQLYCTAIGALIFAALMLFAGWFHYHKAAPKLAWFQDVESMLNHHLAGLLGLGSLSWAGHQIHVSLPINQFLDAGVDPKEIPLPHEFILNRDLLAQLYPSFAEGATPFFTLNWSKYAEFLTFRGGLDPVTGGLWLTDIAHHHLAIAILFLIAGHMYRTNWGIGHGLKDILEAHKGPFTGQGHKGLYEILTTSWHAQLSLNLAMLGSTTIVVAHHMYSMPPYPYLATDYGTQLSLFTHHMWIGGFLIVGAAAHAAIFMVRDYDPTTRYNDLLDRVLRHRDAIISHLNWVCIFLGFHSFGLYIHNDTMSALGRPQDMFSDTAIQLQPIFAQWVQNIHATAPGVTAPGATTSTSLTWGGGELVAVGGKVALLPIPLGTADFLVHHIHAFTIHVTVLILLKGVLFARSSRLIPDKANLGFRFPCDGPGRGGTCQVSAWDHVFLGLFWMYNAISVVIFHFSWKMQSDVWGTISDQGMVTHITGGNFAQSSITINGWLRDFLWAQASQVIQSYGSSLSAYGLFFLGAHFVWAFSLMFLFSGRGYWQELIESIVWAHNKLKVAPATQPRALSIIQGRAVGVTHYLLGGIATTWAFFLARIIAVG
T1 sequence (A0A3G1AZK6 1-734): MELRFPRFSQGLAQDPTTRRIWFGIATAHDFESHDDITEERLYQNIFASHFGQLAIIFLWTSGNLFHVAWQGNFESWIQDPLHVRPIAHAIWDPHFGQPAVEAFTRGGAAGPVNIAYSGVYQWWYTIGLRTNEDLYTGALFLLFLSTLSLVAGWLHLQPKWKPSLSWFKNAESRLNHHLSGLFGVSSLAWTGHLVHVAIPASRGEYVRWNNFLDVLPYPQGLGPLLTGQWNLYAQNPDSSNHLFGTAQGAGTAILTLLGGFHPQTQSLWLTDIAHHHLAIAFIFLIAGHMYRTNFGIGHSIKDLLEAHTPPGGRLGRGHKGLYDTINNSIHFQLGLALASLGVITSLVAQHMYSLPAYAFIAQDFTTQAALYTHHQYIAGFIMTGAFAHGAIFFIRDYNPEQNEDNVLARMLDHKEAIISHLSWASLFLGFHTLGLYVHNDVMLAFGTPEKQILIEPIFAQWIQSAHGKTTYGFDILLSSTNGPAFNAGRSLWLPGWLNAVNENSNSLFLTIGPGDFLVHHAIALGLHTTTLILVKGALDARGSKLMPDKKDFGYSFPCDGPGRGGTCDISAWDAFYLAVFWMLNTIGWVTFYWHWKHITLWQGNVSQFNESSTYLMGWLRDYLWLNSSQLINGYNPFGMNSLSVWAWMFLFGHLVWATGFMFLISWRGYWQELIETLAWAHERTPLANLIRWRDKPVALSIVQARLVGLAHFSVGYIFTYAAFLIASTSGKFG
T1 sequence (A0A3G1ATU7 2-81 partner): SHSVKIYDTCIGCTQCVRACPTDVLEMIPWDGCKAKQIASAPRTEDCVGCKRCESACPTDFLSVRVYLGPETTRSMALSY
T1 sequence (A0A3G1AZM6 1-36 partner): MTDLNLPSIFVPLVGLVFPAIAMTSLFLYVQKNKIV
T1 sequence (A0A3G1AZP2 1-42 partner): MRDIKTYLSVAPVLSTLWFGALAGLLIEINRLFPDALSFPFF
T2 sequence (A0A3G1AUL2 1-750): as the sequence (A0A3G1AUL2 1-750) above
T2 sequence (A0A3G1AZK6 1-734): as the sequence (A0A3G1AZK6 1-734) above
T2 sequence (A0A3G1ATU7 2-81 partner): as the sequence (A0A3G1ATU7 2-81 partner) above
T2 sequence (A0A3G1AZM6 1-36 partner): as the sequence (A0A3G1AZM6 1-36 partner) above

With `CC1=C(/C=C/C(C)=C/C=C/C(C)=C/C=C/C=C(C)/C=C/C=C(C)/C=C/C2=C(C)CCCC2(C)C)C(C)(C)CCC1` [BCR, β-carotene], the “cryo-EM structure (2.2 Å)” value on mature PSI (native pigment, site BCR856, near the PSI core - LHCI interface) was “the head group of β-carotene BCR856 resides in the mature structure”.

Take `CC1=C(C/C=C(\C)CCC[C@H](C)CCC[C@H](C)CCCC(C)C)C(=O)c2ccccc2C1=O` [PQN, phylloquinone]: in assay [1], the “cryo-EM structure (2.1 Å)” value is reported as “phylloquinone PQN844 (PsaA) shows an altered conformation of the isoprenoid chain”. Moreover, the “cryo-EM structure (2.2 Å)” value on mature PSI (native cofactor, site PQN844 of PsaA) is “phylloquinone PQN844 (PsaA) shows an altered conformation of the isoprenoid chain”.
